From patent US20250082760A1 (priority 2020, published 2025)
Structures can show the parent of a compound that is named as a salt.

What was measured:
reserpine-treated mice = assay: mouse sugar water preference test (reserpine depression model); type: in vivo, Kunming mice; conditions: after Res 6 mg/kg i.p., CLI 50, Pro 25, A1P1 24 and 25, compound 5 56 mg/kg i.p.; for Sugar water preference (sugar water drinking amount/total drinking amount): Means±SEM, Res + DMSO 0.642 ± 0.036, DMSO 0.901 ± 0.026
Description: Experimental drug, clomipramine (CLI), sigma company, batch number: C7291, 10 mg/ml (10% DMSO); reserpine (Res), sigma company, batch number: 83580, 1 mg/ml (10% DMSO);
SPF adult male Kunming mice, 20-30 g, Laboratory Animal Center of Lanzhou University, animal certificate number: SCXK (Gan) 2018-0002, reared in separate cages, temperature 22±1° C., humidity […], 12 h/12 h light and dark cycle controlled by dynamic light (light-on time 8:000 h, light-off time 20:000 h, light intensity≈100 lux), animals could eat and move freely.
(§1) Statistical analysis, the experimental data were analyzed by SPSS 19.0 statistical software, and all data were expressed as Means±SEM.

[1] = system: reserpine depression model mice; assay: forced swimming test in mice (reserpine depression model); type: in vivo, Kunming mice; conditions: after Res 6 mg/kg i.p., CLI 50, Pro 25, A1P1 24 and 25, compound 5 56 mg/kg i.p.; for Forced swimming immobility time: 5 min test, Means±SEM, Res + DMSO 169.82 ± 11.22, DMSO 106.72 ± 16.49
Description: Experimental Drug, Animal, Grouping and Administration are Same as Sugar Water Preference Experiment Method.
Preparation of depression animal models, acute intraperitoneal injection of 6 mg/kg Res can cause a continuous decrease in monoamine neurotransmitters in the brain for 1 week, and depression-like behaviors last for 72 hours, it is often utilized for the preparation of depression models (Huang et al., 2004).
Forced swimming experiment process, the forced swimming experiment is an experiment in which animals are placed in an unavoidable stressful environment to detect the despair state of animal behavior (Porsolt et al., 1978). Male Kunming mice were selected and randomly divided into groups. Conduct in a quiet and enclosed behavioral observation room, with red lights for indoor lighting (25 lux). The experiment is divided into two stages, the first stage: adaptation experiment, 1 day before the test, 9:00-12:00 h, put the animals into the forced swimming test equipment (plexiglass drum: diameter 20 cm, height 25 cm, water depth 12 cm, water temperature 21-25° C., the upper side CCD camera is connected to the computer to record) after 15 minutes of adaptation, take it out, dry the hair with a towel and put it back into the cage. The second stage: testing experiment, animals in each group were put into the forced swimming bucket for 5 minutes at the same time period, and the behavioral activities during the testing period were tracked and recorded by digital cameras and then analyzed. Immobility time: The animal floats on the water surface, with no movement of the limbs or slight movement of the hind limbs to keep the head above the water surface. Evaluate depression like behavior by detecting the despair state of animals based on their immobility time.
as §1

righting reflex in mice = assay: mouse righting reflex test (sedative and hypnotic effects); type: in vivo, Kunming mice; conditions: intraperitoneal, Pro 25 mg/kg, n = 7
Description: Experimental animals, SPF Kunming mice, male, 20-30 g, Laboratory Animal Center of Lanzhou University (certificate number: SCXK (Gan) 2018-0002), reared in separate cages, temperature, 22±1° C., humidity, 50%, automatic in the light-controlled 12 h/12 h light-dark cycle (light-on time 8:00 h, light-off time 20:00 h, light intensity ≈100 lux) environment, free food and activities, adapted to the experimental environment for 5 days.
as §1

[2] = system: hot plate pain threshold in mice; assay: hot plate method, compound 1, intragastric administration; type: in vivo
Description: All the mice participating in the experiment were subjected to hot plate pain threshold detection before the experiment, and qualified mice with pain threshold of 10-40 s were screened.
Accurately weigh an appropriate amount of compound 1, dissolve it in distilled water and prepare a mother liquor of 100 mg/ml, then dilute to 1.25 mg/ml (25 mg/kg), 2.5 mg/ml (50 mg/kg) with double distilled water respectively; accurately weigh an appropriate amount of the positive control drug gabapentin, dissolve in distilled water and prepare a 100 mg/ml mother solution, and then dilute to 10 mg/ml (200 mg/kg) with double distilled water. All medicines are prepared and utilized as needed.
40 only qualified mice were divided into 4 groups, half male and half female in each group. The first group is the blank group, no administration; the second group is the positive control (gabapentin) 25 mg/kg group; the third group is the test drug 25 mg/kg group; the fourth group is the test drug 50 mg/kg group 4. All were administered by gavage.
The mice were placed in a hot plate apparatus at a temperature of 55±0.5° C., and the pain thresholds of the mice were measured and recorded before administration and 60 min after administration.

[3] = system: nitroglycerin-induced migraine mouse model; assay: nitroglycerin-induced migraine mouse model (hot plate, head scratching, body weight); type: in vivo, ICR mice
Description: 48 ICR mice weigt 18-22 g, half male and half female; purchased from Qinglongshan Animal Breeding Farm, Jiangning District, Nanjing City, certificate: SCXK (Su) 2017-0001; rearing conditions: room temperature 18-20° C., same sex rearing in separate cages, 12 hours of light, regular ventilation, conventional full-price solid feed feeding, bedding changed every two days; 48 mice were randomly divided into 6 groups (blank control group, model group, positive drug group, low-dose group of test drug, medium-dose group of test drug, high-dose group of test drug), 8 animals (4♀4) in each group, marked No. 1-8 with picric acid respectively.
Solvent: 0.5% CMC-Na aqueous solution; positive drug: flunarizine hydrochloride (sibelin) capsules (specification 5 mg), take the contents in a mortar, add 100 ml of 0.5% CMC-Na solution while grinding, placed in EP tubes for standby; Test drug (compound 5): dissolve into 5, 10, 20 mg/ml solutions with distilled water respectively, and placed in EP tubes for standby; Modeling drug (nitroglycerin): take 2 nitroglycerin tablets (specification 5 mg), crushed into powder, placed in EP tubes, added 500 μl of propylene glycol with a pipette and shaken well, standing still for 5 minutes, added 9.5 ml of normal saline, shaken well and standing still overnight, take the supernatant (containing nitroglycerin) 1 mg/ml) for use.
Except for the first group (blank control group), animals in other groups were subcutaneously injected with 10 mg/kg (0.2 ml/20 g) of nitroglycerin back-up solution 1 h after each administration (modeling once every other day on the 1st, 3rd, and 5th days).
The first group was the blank control group, which was given 0.5% CMC-Na 0.2 ml/20 g by gavage; the second group was the model group, which was given 0.5% CMC-Na by gavage; the third group was the positive drug group, which was given by gavage Flunarizine hydrochloride (sibilin) 1 mg/kg; the fourth group was the low-dose group of test drug, which was given 100 mg/kg of compound 5 by gavage; the fifth group was the medium-dose group of test drug, which was given 200 mg/kg of compound 5 by gavage; the sixth group was the high-dose group of test drug, which was given 400 mg/kg of compound 5 by gavage. Dosing every other day on days 1, 3, and 5.
In behavioral studies, mice scratching their heads for more than 5 times or scratching their faces with forelimbs for more than 5 times were identified as migraine-related behaviors caused by modeling, with a record of scratching their heads once; in the hot plate method, mice lifted their hind limbs and licked their hind feet as the observation indicator, record the time immediately.

[4] = system: lipopolysaccharide-induced depression mouse model; assay: lipopolysaccharide-induced depression mouse model (open field, forced swimming test, body weight); type: in vivo, ICR mice
Description: Positive drug: fluoxetine hydrochloride capsule (specification 20 mg), take the content in a mortar, add 40 ml of 0.5% CMC-Na solution while grinding, to a suspended state, set EP tube for use; test drug (compound 5): dissolve into 5, 10, and 20 mg/ml solutions in distilled water, respectively, and put them in EP tubes for later use; modeling drug (LPS): take a frozen lipopolysaccharide PBS solution (1.2 mg: 1.2 ml), and after thawing Use a pipette to take 1 ml into the EP tube, replace with a new pipette tip and pipette 9 ml of normal saline into the EP tube, shake well for use.
Except for the first group (blank control group), other groups of animals were intraperitoneally injected with LPS 2 h before the last administration on the 7th day to the mice in the model group, the positive drug group, and the low, middle and high dose groups of the test drug.
The first group was the blank control group, which was given 0.5% CMC-Na 0.2 ml/20 g by gavage; the second group was the model group, which was given 0.5% CMC-Na by gavage; the third group was the positive drug group, which was given by gavage Flunarizine hydrochloride (sibilin) 1 mg/kg; the fourth group was the low-dose group of the test drug, which was given 100 mg/kg of compound 5 by gavage; the fifth group was the medium-dose group of the test drug, which was given 200 mg/kg by gavage. kg of compound 5; the sixth group was the test drug high-dose group, and 400 mg/kg of compound 5 was administered by gavage. The drug was administered for one week, and the second to sixth groups were intraperitoneally injected with 1 mg/kg (0.2 ml/20 g) of LPS on the seventh day to establish a model.
On the 7th day, before the last administration and modeling, the effect of the drug on the spontaneous activity of the mice should be investigated, and it is excluded that the drug increases the spontaneous activity of the mice and interferes with the immobility time in the forced swimming experiment. The total migration distance of each mouse in the open field (50×50×50 cm) within 5 min was calculated using the open field experimental instrument and related computer software. Before the data collection, each mouse was given 5 min to familiarize with the open field environment, after each mouse was tested, its excrement was removed and the odor was eliminated with an alcohol spray bottle.
Because the air temperature is low, it is appropriate to control the water temperature by adding hot water to the cylinder.
In the spontaneous activity, the behavioral index selects the total migration distance of mice in the open field within 5 minutes,
by tracking the movement trajectory of mice through monitoring devices, and using computer software, the total distance of movement can be directly obtained; in the FST experiment, the mice were placed in a into a transparent cylinder filled with warm water (about 25° C.) for 6 minutes, the mice will experience struggling, swimming and floating behaviors, the time when the mice stop struggling to float on the water surface is identified as a state of despair caused by depression, by using monitoring equipment and computer software to statistically analyze the state of mice after 4 minutes, the total “Immobility time” can be directly obtained.

[5] = compound 5 56 mg/kg, A1P1 24 and 25 mg/kg, Dia 5 mg/kg

CN(C)CCCN1c2ccccc2CCc2ccc(Cl)cc21 [CLI, clomipramine, reference compound]
change of preference for sugar water compared with the Res+DMSO group (reserpine-treated mice): significantly increased
Sugar water preference (sugar water drinking amount/total drinking amount) (reserpine-treated mice): 0.812 ± 0.025
change of forced swimming immobility time compared with the Res+DMSO group [1]: significantly shortened
Forced swimming immobility time [1]: 80.66 ± 23.68 s

CN1C(=O)CN=C(c2ccccc2)c2cc(Cl)ccc21 [Dia, Diazepam, reference compound]
Disappearance time (latency of disappearance of the righting reflex) (righting reflex in mice; [5]): did not disappear
Observation of activity and other phenomena (righting reflex in mice; [5]): significantly reduced

NCC1(CC(=O)O)CCCCC1 [Gabapentin, gabapentin, reference compound]
Pain response time Before administration ([2]; 25 mg/kg gavage group, baseline, n 10, X ± SD): 16.6 ± 5.2 s
Pain response time After administration ([2]; 25 mg/kg gavage, 60 min after administration, X ± SD): 33.5 ± 15.0 s
Pain response time extension rate ([2]; 25 mg/kg gavage, 60 min after administration, blank group 3.9 ± 6.6): 113.4 ± 99.1 %

CC(C)c1cccc(C(C)C)c1O [Pro, Propofol, reference compound]
Duration (disappearance to recovery of the righting reflex) (righting reflex in mice): 150.97 s
Observation of activity and other phenomena (righting reflex in mice; [5]): significantly reduced
change of preference for sugar water compared with the Res+DMSO group (reserpine-treated mice): rose significantly
Sugar water preference (sugar water drinking amount/total drinking amount) (reserpine-treated mice): 0.789 ± 0.043
change of forced swimming immobility time compared with the Res+DMSO group [1]: slightly shortened
Forced swimming immobility time [1]: 145.01 ± 21.21 s

Fc1ccc(C(c2ccc(F)cc2)N2CCN(C/C=C/c3ccccc3)CC2)cc1 [flunarizine hydrochloride, reference compound]
weight gain of mice ([3]; reference blank group, compound 5 100, 200, 400 mg/kg, flunarizine hydrochloride 1 mg/kg, gavage, p>0.05): no significant difference
hind feet licking time (hot plate) ([3]; reference model group, flunarizine hydrochloride 1 mg/kg gavage, 45 min after modeling, day 5, p<0.05): significant difference
total number of head scratching times ([3]; reference model group, flunarizine hydrochloride 1 mg/kg gavage, day 5): extremely significant (p<0.01)

CNCCC(Oc1ccc(C(F)(F)F)cc1)c1ccccc1 (stereo not shown) [fluoxetine hydrochloride, reference compound]
effect on body weight of mice ([4]; compound 5 100, 200, 400 mg/kg and positive drug, gavage for one week): no significant effect
alleviation of depressive behavior caused by LPS ([4]; compound 5 100, 200, 400 mg/kg and positive drug, gavage for one week, no statistical difference found): certain alleviation effect
spontaneous activity: total migration distance in open field within 5 minutes ([4]; reference blank group, day 7 before last administration, all dose groups, p>0.05): no significant effect
FST immobility time ([4]; reference model group, compound 5 100, 200, 400 mg/kg and positive drug, gavage for one week, 4 h after LPS): not significantly different (p>0.05)
